Where two headings read alike, the source gives them in different places.
Target: T1, Androgen Receptor (Homo sapiens, UniProt P10275)
T1 construct: endogenous in cells; host or cells: VCaP cells
T1 sequence (P10275 1-920): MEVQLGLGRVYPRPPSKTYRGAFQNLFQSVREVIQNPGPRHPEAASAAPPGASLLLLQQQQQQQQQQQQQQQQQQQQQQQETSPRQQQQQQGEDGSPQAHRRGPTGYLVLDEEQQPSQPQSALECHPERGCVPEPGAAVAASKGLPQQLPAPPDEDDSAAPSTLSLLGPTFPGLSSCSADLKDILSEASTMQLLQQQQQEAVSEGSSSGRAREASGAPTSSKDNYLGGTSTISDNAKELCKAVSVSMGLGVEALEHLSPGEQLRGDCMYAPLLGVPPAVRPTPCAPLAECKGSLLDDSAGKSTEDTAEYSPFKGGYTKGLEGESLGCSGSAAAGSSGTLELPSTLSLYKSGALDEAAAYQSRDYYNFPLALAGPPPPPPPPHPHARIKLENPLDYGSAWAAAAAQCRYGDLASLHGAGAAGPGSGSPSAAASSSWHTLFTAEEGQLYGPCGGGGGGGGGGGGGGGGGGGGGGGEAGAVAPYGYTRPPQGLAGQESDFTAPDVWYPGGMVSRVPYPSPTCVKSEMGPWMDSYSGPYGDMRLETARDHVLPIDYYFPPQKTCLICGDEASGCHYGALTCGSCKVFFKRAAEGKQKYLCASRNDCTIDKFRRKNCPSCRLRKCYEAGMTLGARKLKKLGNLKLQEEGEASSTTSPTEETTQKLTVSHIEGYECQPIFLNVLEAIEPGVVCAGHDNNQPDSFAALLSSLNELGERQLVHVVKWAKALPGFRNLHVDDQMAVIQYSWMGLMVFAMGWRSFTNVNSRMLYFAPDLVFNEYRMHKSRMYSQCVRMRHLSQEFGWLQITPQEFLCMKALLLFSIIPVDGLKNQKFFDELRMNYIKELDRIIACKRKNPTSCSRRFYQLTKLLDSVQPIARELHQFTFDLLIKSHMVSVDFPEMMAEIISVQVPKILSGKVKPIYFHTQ
Test: Androgen Receptor ELISA assay (PathScan AR ELISA) in VCaP cells: AR degradation, Dmax and DC50
Type: cell-based
Conditions: for Dmax: VCaP, read-out: VCaP Dmax (%); for DC50: read-out: VCaP DC50
Description: 1. Androgen Receptor ELISA Assay.
The protocols used with VCaP cells are described below. The androgen receptor ELISA assay was performed using PathScan AR ELISA (Cell Signaling Catalog #12850) according to the following assay steps:
VCaP cells are seeded at 30,000 cells/well at a volume of 200 μL/well in VCaP assay medium [Phenol red free RPMI (Gibco Cat #11835-030); 5% Charcoal Stripped (Dextran treated) FBS (Omega Scientific, Cat #FB-04); Pen/Strep Life Technologies (Gibco Cat #: 10378-016); 0.1 nM R1881 (Sigma, Cat #R0908) is added upon the start of the assay, not during initial plating of the cells) in Corning 3904 plates. The cells are grown for a minimum of 3 days.
First, cells are dosed with compounds diluted in 0.1% DMSO—use a polypropylene plate according to the following protocol: (1)(i) make 1000× stock plate in DMSO; (ii) 20 mM stock diluted 1/6.7 with DMSO (5 μL+28.3 μL DMSO)=3 mM into row H; (iii) perform serial dilutions in ½ log doses (10 μL of PROTAC+20 μL DMSO) from row H towards row B. Reserve row A for DMSO; (iv) 7 doses total (final concentration in this 1000× plate will be 3 mM, 1 mM, 333 μM, 111 μM, etc). (2)(i) Make 10× stock plate in media; (ii) transfer 2.5 μL of the 1000× stock to a new 10× stock plate (use 12 channel pipet, start at A (DMSO control) work thru H. When 247.5 μL of media is added to this plate, it will serve as a 10× stock; (iii) make media+1 nM R1881 for making 10× stock plate; (iv) add 247.5 μL of media with 1 nM R1881 to each well of the 10× stock plate, mix.
Then 22 μL of 10× stock is added to cells and incubated for 24 h. 1× Cell Signaling Cell lysis buffer is made (Catalogue #9803; comes with the kit)—prepare for 50 μL/well. Keep on ice. Media is aspirated, and 50 μL 1× cell lysis buffer/well is added. The cells are placed on ice for 10 minutes. The solution is mixed and transferred to PCR plate, and centrifuged at 4C for 10 minutes at 4000 rpm.
5 μL is transferred to fresh plate (use immediately or freeze −80 C); 115 μL ELISA Dilutant is added (0.15 ug/ml-0.075 ug/ml; comes with the PathScan ELISA).
Add 100 μL/well AR Elisa; cover and shake, 37 C for 2 hrs; dump, tap, wash 4×200 μL ELISA wash buffer; add 100 μL/well mouse AR detection Ab; cover and shake, 37 C for 1 hr; dump, tap, wash 4×200 μL ELISA wash buffer; add 100 μL/well anti-mouse—HRP conjugated Ab (comes with the kit); cover and shake, 37 C for 30 min; allow TMB reagent to come to room temperature; dump, tap, wash 4×200 μL Elisa wash buffer; tap; add 100 μL TMB, shake 5 min—while watching color. Add the stop reagent when light blue color develops. Add 100 μL Stop solution; shake and read at 450 nm.

[1] = concentration that caused 50% Androgen Receptor degradation, VCaP cells (Table 32)

## Cc1ncsc1-c1ccc([C@H](C)NC(=O)[C@@H]2C[C@@H](O)CN2C(=O)[C@@H](NC(=O)COc2ccc(O[C@H]3CC[C@H](Oc4ccc(N5C(=S)N(c6ccc(C#N)c(C(F)(F)F)c6)C(=O)C5(C)C)cc4)CC3)nc2)C(C)(C)C)cc1 (racemic) [Example 421]
  Dmax: 26 to 50%
VCaP cells, Table 35
  DC50: 0.051 to 0.5 µM

## Cc1nccn1-c1ccc([C@H](C)NC(=O)[C@@H]2C[C@@H](O)CN2C(=O)C(C(C)C)n2cc(OCCCOCCCCCOc3ccc(N4C(=S)N(c5ccc(C#N)c(C(F)(F)F)c5)C(=O)C4(C)C)cc3)cn2)nc1 (mixture of isomers) [Example 423]
  Dmax: < 25%
VCaP cells, Table 35
  DC50: > 0.501 µM

## Cc1ncsc1-c1ccc(CNC(=O)[C@@H]2C[C@@H](O)CN2C(=O)[C@@H](C(C)C)n2cc(OCCCOCCCCCOc3ccc(N4C(=S)N(c5ccc(C#N)c(C(F)(F)F)c5)C(=O)C4(C)C)cc3)cn2)nc1 (racemic) [Example 431]
  Dmax: < 25%
VCaP cells, Table 35
  DC50: > 0.501 µM

## Cc1ncsc1-c1ccc(CNC(=O)[C@@H]2C[C@@H](O)CN2C(=O)[C@@H](C(C)C)n2cc(OCC#CC#CCOc3ccc(N4C(=S)N(c5ccc(C#N)c(C(F)(F)F)c5)C(=O)C4(C)C)cc3)cn2)cc1 (racemic) [Example 616, 1-(2-(4-((6-(4-(3-(4-cyano-3-(trifluoromethyl)phenyl)-5,5-dimethyl-4-oxo-2-thioxoimidazolidin-1-yl)phenoxy)hexa-2,4-diyn-1-yl)oxy)-1H-pyrazol-1-yl)-3-methylbutanoyl)-4-hydroxy-N-(4-(4-methylthiazol-5-yl)benzyl)pyrrolidine-2-carboxamide]
  Dmax: < 25%
VCaP cells, Table 36
  DC50: > 0.501 µM

## Cc1ncsc1-c1ccc(CNC(=O)[C@@H]2C[C@@H](O)CN2C(=O)[C@@H](NC(=O)COC(C)CCCOc2ccc(-c3ccc(N4C(=S)N(c5ccc(C#N)c(C(F)(F)F)c5)C(=O)C4(C)C)cc3)cc2)C(C)(C)C)cc1 (stereo in doubt) [Example 147, (2S,4R)-1-[(2S)-2-(2-{[(2S)-5-[4-(4-{3-[4-cyano-3-(trifluoromethyl)phenyl]-5,5-dimethyl-4-oxo-2-sulfanylideneimidazolidin-1-yl}phenyl)phenoxy]pentan-2-yl]oxy}acetamido)-3,3-dimethylbutanoyl]-4-hydroxy-N-{[4-(4-methyl-1,3-thiazol-5-yl)phenyl]methyl}pyrrolidine-2-carboxamide]
  Dmax: > 71%
[1]
  DC50: < 0.05 µM

## Cc1ncsc1-c1ccc(CNC(=O)[C@@H]2C[C@@H](O)CN2C(=O)[C@@H](NC(=O)COC(C)CCCOc2ccc(-c3ccc(N4C(=S)N(c5ccc(C#N)c(C(F)(F)F)c5)C(=O)C4(C)C)cc3)cc2)C(C)(C)C)cc1 (stereo in doubt) [Example 148, (2S,4R)-1-[(2S)-2-(2-{[(2R)-5-[4-(4-{3-[4-cyano-3-(trifluoromethyl)phenyl]-5,5-dimethyl-4-oxo-2-sulfanylideneimidazolidin-1-yl}phenyl)phenoxy]pentan-2-yl]oxy}acetamido)-3,3-dimethylbutanoyl]-4-hydroxy-N-{[4-(4-methyl-1,3-thiazol-5-yl)phenyl]methyl}pyrrolidine-2-carboxamide]
  Dmax: > 71%
[1]
  DC50: < 0.05 µM

## Cc1ncsc1-c1ccc(CNC(=O)[C@@H]2C[C@@H](O)CN2C(=O)C(C(C)C)n2cc(Oc3cccc(OCCCCCOc4ccc(N5C(=S)N(c6ccc(C#N)c(C(F)(F)F)c6)C(=O)C5(C)C)cc4)c3)cn2)cc1 (stereo in doubt) [Example 602, (2S,4R)-1-((R)-2-(4-(3-((5-(4-(3-(4-cyano-3-(trifluoromethyl)phenyl)-5,5-dimethyl-4-oxo-2-thioxoimidazolidin-1-yl)phenoxy)pentyl)oxy)phenoxy)-1H-pyrazol-1-yl)-3-methylbutanoyl)-4-hydroxy-N-(4-(4-methylthiazol-5-yl)benzyl)pyrrolidine-2-carboxamide]
VCaP cells, Table 36
  DC50: > 0.501 µM

From patent publication US11427548B2 (Arvinas Operations, Inc., priority 2015, dated 2022)
